According to the supplement of paper PMC10307832:

Compound: CC1=C(C(=NN1)C)CC2=C(C3=C(S2)N(C(=O)N(C3=O)C)CC(C)C)C(=O)N4C[C@@H](CO4)O + Cc1cc(Nc2cc(N3CCN(C)CC3)nc(Sc3ccc(NC(=O)C4CC4)cc3)n2)n[nH]1 [Tozasertib] (partner 0.1 µM)
Assay: relative viability (nuclei count vs DMSO), 5 days (fraction); higher = more cells survive
Conditions: first compound 0.25 µM
How it was run: (§1)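 A single step with final 0.05% Triton X-100, 1% formaldehyde and 1 ug/ml Hoechst fixed the cells and stained nuclei 5 days after treatment. Lung cancer cell lines in 1536-well plates had been treated by pin tool the day after seeding with one drug alone or a fixed anchor-drug dose plus five library-drug doses (not always all listed) in √10 steps, and nuclei were counted on 4× images. Relative viability is the ratio of nuclei in treated wells to nuclei in vehicle wells, taken as the median of duplicate plates.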

Cell Line	relative viability
PC-3 [JPC-3]	1.01

Compound: CC1=C(C(=NN1)C)CC2=C(C3=C(S2)N(C(=O)N(C3=O)C)CC(C)C)C(=O)N4C[C@@H](CO4)O + NC(=O)Nc1cc(-c2cccc(F)c2)sc1C(=O)N[C@H]1CCCNC1 [AZD7762] (partner 0.2 µM)
Assay: as above
Conditions: first compound 0.0025 µM
How it was run: as §1

Cell Line	relative viability
201T	0.67
NCI-H1915	0.742
HCC-827	0.233
LXF-289	1.06
NCI-H23	0.23
NCI-H647	0.515
CAL-12T	0.632
NCI-H1651	0.414
EPLC-272H	0.252
NCI-H1355	0.688
NCI-H3122	1.03
NCI-H1437	1.21
NCI-H1755	0.465
HCC-15	1.34
NCI-H1793	0.281
PC-14	0.33
EKVX	0.803
LC-2-ad	0.892
NCI-H1944	0.531
NCI-H1975	0.709
RERF-LC-KJ	1.01
ABC-1	0.777
NCI-H358	0.571
NCI-H650	1.03
PC-3 [JPC-3]	0.872

Same assay, conditions: first compound 0.007906 µM

Cell Line	relative viability
201T	0.673
NCI-H1915	0.727
HCC-827	0.199
LXF-289	1.13
NCI-H23	0.208
NCI-H647	0.418
CAL-12T	0.578
NCI-H1651	0.478
EPLC-272H	0.21
NCI-H1355	0.842
NCI-H3122	1.09
NCI-H1437	1.07
NCI-H1755	0.434
HCC-15	1.37
NCI-H1793	0.339
PC-14	0.371
EKVX	0.721
LC-2-ad	0.83
NCI-H1944	0.524
NCI-H1975	0.691
RERF-LC-KJ	1.16
ABC-1	0.631
NCI-H358	0.623
NCI-H650	0.961
PC-3 [JPC-3]	0.76

Same assay, conditions: first compound 0.025 µM

Cell Line	relative viability
201T	0.573
NCI-H1915	0.658
HCC-827	0.196
LXF-289	1.07
NCI-H23	0.298
NCI-H647	0.366
CAL-12T	0.647
NCI-H1651	0.391
EPLC-272H	0.225
NCI-H1355	0.713
NCI-H3122	1.02
NCI-H1437	1.09
NCI-H1755	0.425
HCC-15	1.13
NCI-H1793	0.203
PC-14	0.332
EKVX	0.761
LC-2-ad	0.84
NCI-H1944	0.466
NCI-H1975	0.735
RERF-LC-KJ	0.888
ABC-1	0.732
NCI-H358	0.431
NCI-H650	0.893
PC-3 [JPC-3]	0.69

Same assay, conditions: first compound 0.07906 µM

Cell Line	relative viability
201T	0.586
NCI-H1915	0.641
HCC-827	0.196
LXF-289	1.2
NCI-H23	0.271
NCI-H647	0.653
CAL-12T	0.6
NCI-H1651	0.337
EPLC-272H	0.144
NCI-H1355	0.65
NCI-H3122	0.973
NCI-H1437	1.11
NCI-H1755	0.407
HCC-15	1.17
NCI-H1793	0.279
PC-14	0.374
EKVX	0.517
LC-2-ad	0.856
NCI-H1944	0.478
NCI-H1975	0.723
RERF-LC-KJ	1.1
ABC-1	0.878
NCI-H358	0.643
NCI-H650	0.936
PC-3 [JPC-3]	0.976

Same assay, conditions: first compound 0.25 µM

Cell Line	relative viability
201T	0.677
NCI-H1915	0.762
HCC-827	0.2
LXF-289	1.22
NCI-H23	0.31
NCI-H647	0.45
CAL-12T	0.566
NCI-H1651	0.416
EPLC-272H	0.231
NCI-H1355	0.816
NCI-H3122	1.02
NCI-H1437	1.14
NCI-H1755	0.471
HCC-15	1.29
NCI-H1793	0.24
PC-14	0.306
EKVX	0.725
LC-2-ad	0.851
NCI-H1944	0.51
NCI-H1975	0.771
RERF-LC-KJ	1.01
ABC-1	0.841
NCI-H358	0.594
NCI-H650	0.913
